In patent publication US20220202610A1, “CONTACT LENS WITH SUSTAINED RELEASE PROPERTY” (priority 2020, published 2022):

Experiments:
[1] = Release of lens drug (dexamethasone): drug loading, moist heat sterilization and release in saline, HPLC; assay type: physicochemical; conditions: 121° C., 30 minutes
Procedure: (§1) Sampling time point: 0, 2, 4 and 8 hours (N=3)
(1) Single drug-loaded lens was placed in a 5 mL ampoule. 1 mL of saline was added as a release medium. The lens was placed in a shake oven (MS Hybridization Shaking Oven, MO-AOR, Major Science), and a drug release test was conducted under the operating parameters of 35° C. and 100 rpm. The drug release solution was replaced with fresh saline every 2 hours.
(2) The drug content in the lens preservation solution and the drug content in the lens were analyzed by HPLC with RP-C18 column. The extraction method of drug (Dexamethasone, DEX) in the lens: one lens was taken out of the preservation solution. Lens surface moisture was fully absorbed with a lens cleaning paper. The one lens was immersed in 1 mL of methanol to stand for 8 hours to extract the drug. Then the drug content was analyzed by HPLC.

[2] = Release of lens drug (menthol): drug loading, moist heat sterilization and release in saline, HPLC; assay type: physicochemical; conditions: 121° C., 30 minutes
Procedure: as §1
First group: P-2.5HPC7/P6k-38CL
(1) Single drug-loaded lens was placed in a 5 mL ampoule. 1 mL of saline was added as a release medium. The lens was placed in a shake oven (MS Hybridization Shaking Oven, MO-AOR, Major Science), and a drug release test was conducted under the operating parameters of 35° C. and 100 rpm. No release solution was replaced throughout. Sampling: the lens was taken out at each time point. The drug was extracted with ethanol (98 wt %). The drug content was analyzed by HPLC with RP-C18 column. After the lens was taken out, no drug release test was performed.
(2) The extraction method of menthol in the lens: one lens was taken out of the ampoule used for the release test. Lens surface moisture was fully absorbed with a lens cleaning paper. The one lens was immersed in 1 mL of ethanol (98 wt %) to stand for 8 hours to extract the drug. Then the drug content was analyzed by HPLC.

Cn1c(=O)c2c(ncn2C)n(C)c1=O [caffeine]
loss caused by the moist heat sterilization [1]: hardly causes the loss

CC1CCC(C(C)C)C(O)C1 (centres unmarked) [menthol]
menthol in the lens preservation solution after the moist heat sterilization [2]: most of the menthol in the lens preservation solution escapes
